Source: the RepoRT retention time repository (doi:10.1021/acs.analchem.2c02893)

Experiment: RP, Thermo Scientific Acclaim RSLC 120 C18, 100 × 2.1 mm, 2.2 µm, 30 °C, 0.2 mL/min, estimated dead time 1.1 min; A: 90% water + 10% methanol + 0.01% formic acid + 5 mM ammonium formate, pH 3.61; B: methanol + 0.01% formic acid + 5 mM ammonium formate, pH 3.61; gradient (min/%B) 0/1 1/1 2/39 13/99.9 15/99.9 15.1/1 20.1/1
Details: stereoisomer not certain

SMILES | LC retention time
CON=C(C1=NOCCO1)c1ccccc1Oc1ncnc(Oc2ccccc2Cl)c1F [Fluoxastrobin] | 9.95 min
Cn1nnc2ccccc21 [Benzotriazole -1-Methyl] | 5.11 min
Cc1cccc(OCC(O)CNC(C)C)c1 (centres undefined) [Toliprolol] | 5.29 min
NC(=O)N=C1SCCN1Cc1ccc(Cl)nc1 [Thiacloprid-amide] | 4.83 min
c1ccc(CN(CC2=NCCN2)c2ccccc2)cc1 [Antazoline] | 6.41 min
CN(C)CCC(c1ccc(Br)cc1)c1ccccn1 (centres undefined) [Brompheniramine] | 6.56 min
CC(C)(C)NCC(O)COc1cc(C(=O)O)ccc1Cl (centres undefined) [Bupranolol- 5-Carboxy] | 5.01 min
CN(C)c1ccc(C(c2ccccc2)c2ccc(N(C)C)cc2)cc1 [Leuco malachite green (LMG)] | 13.7 min
CC(CCc1ccc(O)cc1)NCC(O)c1ccc(O)cc1 (centres undefined) [Ractopamine] | 4.39 min
CCOC(=O)C1(c2ccccc2)CCC=CC1NC (centres undefined) [Tilidine-Nor] | 5.28 min
CN(C)C1C(=O)C(C(N)=O)=C(O)C2(O)C(=O)C3=C(O)c4c(O)cccc4C(C)(O)C3CC12 (centres undefined) [Tetracycline] | 4.7 min
CCOCN(C(=O)CCl)c1c(C)cccc1CC [Acetochlor] | 10.2 min
CCc1cccc(CC)c1N(COC)C(=O)CCl [Alachlor] | 10.3 min
CS(=O)(=O)NC(=O)c1cc(Oc2ccc(C(F)(F)F)cc2Cl)ccc1[N+](=O)[O-] [Fomesafen] | 9.01 min
COC(=O)c1ccc(C)cc1C1=NC(C)(C(C)C)C(=O)N1 (centres undefined) [Imazamethabenz-methyl] | 7.16 min
CNC(=O)Oc1cccc(C)c1 [Metolcarb] | 6.59 min
COP(=S)(OC)Oc1ccc(S(C)(=O)=O)c(C)c1 [Fenthion-sulfon] | 7.57 min
CCCCn1c(O)c(C(=O)c2cccc3ccccc23)c2ccccc21 [JWH-073-M-2-OH-Ind] | 13.5 min
CC(C(=O)c1ccccc1)N1CCCC1 (stereo not drawn) [PPP- alpha] | 4.01 min
COc1cc(CCNCc2ccccc2OC)c(OC)cc1Cl [2-C-C-NBoMe] | 7.34 min
COC(=O)C(NC(=O)c1nn(CCCCCF)c2ccccc12)C(C)(C)C (centres undefined) [ADB-5F] | 11 min
CC1CC2C3CCC4=CC(=O)C=CC4(C)C3(F)C(O)CC2(C)C1(O)C(=O)CO (centres undefined) [Dexamethasone] | 8.38 min

SMILES | LC retention time
CN(C)CCC=C1c2ccccc2Sc2ccc(Cl)cc21 [Chlorprotixene] | 8.99 min
COc1cc(CNC(=O)CCCCC=CC(C)C)ccc1O [Capsaicin] | 9.83 min
CNC(C)CC1CCCCC1 (centres undefined) [Levopropylhexedrine] | 5.74 min
COC1CC(OC2C(C)OC(OC3C(C)=CCC4CC(CC5(CCC(C)C(C(C)C)O5)O4)OC(=O)C4C=C(C)C(O)C5OCC(=CC=CC3C)C45O)CC2OC)OC(C)C1O (centres undefined) [Ivermectin B1b] | 14.2 min
CC(C(=O)O)N(C(=O)c1ccccc1)c1ccc(F)c(Cl)c1 (centres undefined) [Flamprop] | 8.6 min
c1ccc2c(CC3=NCCN3)cccc2c1 [Naphazoline] | 4.84 min
CC1C2Cc3ccc(O)cc3C1(C)CCN2CCc1ccccc1 (centres undefined) [Phenazocine] | 6.08 min
CCOP(=S)(OCC)SCSc1ccc(Cl)cc1 [Carbophenothion] | 12.9 min
Cc1cccc(C)c1NC(=O)CS(=O)(=O)O | 9.34 min
CC(C)(Oc1ccc(CCNC(=O)c2ccc(Cl)cc2)cc1)C(=O)O [Bezafibrate] | 8.77 min
Nc1cnn(-c2ccccc2)c(=O)c1Cl [Chloridazone] | 5.34 min
CCN(CC)c1nc(C)cc(OP(=S)(OC)OC)n1 [Pirimiphos-methyl] | 11.3 min
CCCc1ccc(C(=O)c2cn(CCC)c3ccccc23)c2ccccc12 [JWH-180] | 12.7 min
CSc1nnc(C(C)(C)C)c(=O)[nH]1 [Metribuzin-Desamino (DA)] | 7.46 min
CNC(=C[N+](=O)[O-])NCCSCc1csc(CN(C)C)n1 [Nizatidine] | 2.96 min
CN(C)CCc1c[nH]c2ccc(Cn3cncn3)cc12 [Rizatriptan] | 3.49 min
Cc1ccc(C(C)NC(=O)C(NC(=O)OC(C)C)C(C)C)cc1 (centres undefined) [Iprovalicarb] | 9.82 min
COc1ccc(N)cc1N [4-Methoxy-1.3-phenylenediamine] | 2.37 min
Clc1ccccc1C(c1ccccc1)(c1ccccc1)n1ccnc1 [Clotrimazole] | 11.2 min
CNC(=O)Oc1cc(C)cc(C)c1 [XMC (Group of peaks!)] | 7.78 min
c1nc[nH]n1 [1,2,4-Triazole] | 1.56 min
CN1CCN(CCCN2c3ccccc3Sc3ccccc32)CC1 [Perazine] | 8.8 min

SMILES | LC retention time
CC12CCC(=O)C=C1C1CC1C1C2CCC2(C)C1C1CC1C21CCC(=O)O1 (centres undefined) [Drospirenone] | 9.56 min
Nc1ccc(N=Nc2ccccc2)c(N)n1 [Phenazopyridine] | 8.49 min
COC(=O)C(NC(=O)c1nn(Cc2ccc(F)cc2)c2ccccc12)C(C)(C)C (centres undefined) [MDMB-FUBINACA] | 11.3 min
Cc1cccc(C)c1N(C(=O)CCl)C1CCOC1=O (centres undefined) [Ofurace] | 7 min
Cc1ccccc1C(=O)Nc1cccc(OC(C)C)c1 [Mepronil] | 9.62 min
COC(=O)COCCN1CCN(C(c2ccccc2)c2ccc(Cl)cc2)CC1 (centres undefined) [Cetirizine-Methyl ester] | 8.86 min
CN1CCN(c2cc3c(cc2F)c(=O)c(C(=O)O)cn3-c2ccc(F)cc2)CC1 [Difloxacin] | 4.96 min
Cc1cc(C(C)(C)C)c(O)c(C)c1CC1=NCCN1 [Oxymetazoline] | 6.99 min
O=C(O)CCCCn1cc(C(=O)c2cccc3ccccc23)c2ccccc21 [JWH-018-M-N-Pentanoic acid] | 9.71 min
COc1ccc2c(c1)[nH]c1c(C)nccc12 [Harmine] | 5.34 min
Cc1cc(O)cc(C)c1S(C)=O (centres undefined) [Methiocarb-sulfoxide phenol] | 4.63 min
C[N+](C)([O-])CCCC1(c2ccc(F)cc2)OCc2cc(C#N)ccc21 (centres undefined) [Citalopram N-oxide] | 7.1 min
CC(=O)C1CCC2C3C=CC4=CC(=O)CCC4(C)C3CCC12C (centres undefined) [Dydrogesterone] | 10.7 min
NC(=O)CS(=O)C(c1ccccc1)c1ccccc1 (centres undefined) [Modafinil] | 6.76 min
COC(=O)c1ccc(O)cc1 [Methylparaben] | 6 min
CC(CN1c2ccccc2Sc2cccnc21)N(C)C (centres undefined) [Isothipendyl] | 6.47 min
Nc1[nH]c(=O)ncc1F [Cytosine-5-Fluoro (broad peak)] | 1.43 min
O=c1[nH]c2ccccc2s1 [Benzothiazole -2-OH] | 6.53 min
ON=Cc1cc[n+](COC[n+]2ccc(C=NO)cc2)cc1 [Obidoxime] | 3.03 min
Cc1cc(C)nc(NS(=O)(=O)c2ccc(N)cc2)n1 [Sulfadimidine (Sulfamethazine)] | 4.31 min
